SMILES strings stand for the structures.

In one assay the test system is CD4+ T-cells. Kind of assay: Immunostimulation assay with anti-CD3/28 stimulated T-cells, CD69 expression by flow cytometry. Type of assay: cell-based, human. As to conditions: T-cell; purified human CD4+ and CD8+ T-cells, 1 µg/ml anti-CD3, 1 µg/ml anti-CD28, 16 hours, surface FACS; read-out: EC50 CD4+. As to the method:
(§1) Selection of potent compounds based on structure activity relation (SAR) using human, anti-CD3/28 stimulated T-cells. Enhanced activation of stimulated T-cells is measured by CD69 expression by flowcytometry.
(§2) White blood cell enriched buffy coats were ordered from the Austrian red cross, diluted with PBS to a total volume of 480 ml, 30 ml transferred to 50ml falcons and 11 ml lymphoprep added. Cell suspensions were centrifuged for 20 min at 2200 rpm and the PBMC containing layer transferred, three times washed with PBS and counted.
(§3) 10^7 PBMCs were magnetically labeled with CD4 and CD8 microbeads according to manufacturer's instructions and separated using autoMACS device. For dose response experiments with purified CD4+CD8+ T-cells 80000 cells were seeded per 96-well flat bottom cell culture dish.
(§4) 10 mM compounds of the invention stocks were further diluted using DMSO and equal amounts transferred to T-cell containing 96-wells. Final concentrations tested were: 30 µM, 10 µM, 3 µM, 1 µM, 0.3 µM, 0.1 µM, 0.03 µM, 0.01 µM, 0.003 µM and 0.001 µM.
(§5) For the stimulation assays 80.000 purified CD4+ and CD8+ T-cells were seeded per 96-well and incubated with 1 µg/ml anti-CD3, 1 µg/ml anti-CD28 and compounds of the invention ranging from 0.001 µM to 30 µM. DMSO only wells served as control to determine minimal T-cell activation upon stimulation and CD3/28 coupled Dynabeads were used to determine the maximal activation of T-cells. Cells were cultured for 16 hours in a humidified incubator at 37 °C and 5 % CO2.
(§6) T-cells were stained for surface antigens (anti-CD4 and anti-CD8) and cell activation markers (anti-CD25 and anti-CD69). Additionally, a fixable viability dye was used to stain viable cells. Staining was performed for 15 minutes and cells analyzed using a Fortessa flow cytometer and FlowJo Software. EC50s were calculated using GraphPad Prism® and a variable slope model (agonist vs. response - variable slope).
(In general: Flow cytometry measures light scatter and fluorescence of single cells or particles in a stream.)

The test system of the next assay is CD8+ T-cells. The assay is described as above. As to conditions: T-cell; purified human CD4+ and CD8+ T-cells, 1 µg/ml anti-CD3, 1 µg/ml anti-CD28, 16 hours, surface FACS; read-out: EC50 CD8+. The class given is cell-based, human. The procedure: as §1, §2, §3, §4, §5, §6

As a reminder, the EC50 is the midpoint of the concentration-response curve. Consider `CC(CO)Cn1c(=O)[nH]c(=O)c2c1nc(-c1ccc(Oc3ccc(OC(F)(F)F)cc3)cc1)n2C` (stereo not shown) [Compound 100, 3-(3-hydroxy-2-methylpropyl)-7-methyl-8-(4-(4-(trifluoromethoxy)phenoxy)phenyl)-3,7-dihydro-1H-purine-2,6-dione], for which the 50% effective concentration (EC50) in the assay with CD4+ T-cells and with CD8+ T-cells was 100 to 500 nM in each case.

For the compound `COc1cc(-c2nc3c(c(=O)[nH]c(=O)n3CC(C)O)n2C)ccc1OCc1cccc2ccncc12` (stereo not shown) [Compound 101, 3-(2-hydroxypropyl)-8-(4-(isoquinolin-8-ylmethoxy)-3-methoxyphenyl)-7-methyl-3,7-dihydro-1H-purine-2,6-dione], the EC50 in the assay with CD4+ T-cells and with CD8+ T-cells was 100 to 500 nM each time.

For the compound `Cc1ccc(COc2ccc(-c3nc4c(c(=O)[nH]c(=O)n4CC(O)C(F)(F)F)n3C)cc2F)cc1` (stereo not shown) [Compound 102, 8-(3-fluoro-4-((4-methylbenzyl)oxy)phenyl)-7-methyl-3-(3,3,3-trifluoro-2-hydroxypropyl)-3,7-dihydro-1H-purine-2,6-dione], the values for the EC50 in the assay with CD4+ T-cells and in the assay on CD8+ T-cells were below 100 nM and 100 to 500 nM, respectively.

`COc1cc(-c2nc3c(c(=O)[nH]c(=O)n3CC(C)O)n2C)ccc1OCc1cccc2ncccc12` (stereo not shown) [Compound 113, 3-(2-hydroxypropyl)-8-(3-methoxy-4-(quinolin-5-ylmethoxy)phenyl)-7-methyl-3,7-dihydro-1H-purine-2,6-dione]: the results for the EC50 in the assay on CD4+ T-cells and with CD8+ T-cells were 500 to 1000 nM and 1000 to 5000 nM, respectively.

Consider `COc1ccc(COc2ccc(-c3nc4c(c(=O)[nH]c(=O)n4CC(C)O)n3C)cc2F)cc1` (stereo not shown) [Compound 114, 8-(3-fluoro-4-((4-methoxybenzyl)oxy)phenyl)-3-(2-hydroxypropyl)-7-methyl-3,7-dihydro-1H-purine-2,6-dione], for which the EC50 in the assay on CD4+ T-cells and with CD8+ T-cells was 1000 to 5000 nM throughout.

As for `Cc1ccc(COc2ccc(-c3nc4c(c(=O)[nH]c(=O)n4CC(C)O)n3C)cc2F)cc1` (stereo not shown) [Compound 115, 8-(3-fluoro-4-((4-methylbenzyl)oxy)phenyl)-3-(2-hydroxypropyl)-7-methyl-3,7-dihydro-1H-purine-2,6-dione], the EC50 in the assay with CD4+ T-cells and with CD8+ T-cells was 500 to 1000 nM each time.

`Cn1c(-c2ccc(OCc3ccccc3)c(OC(F)(F)F)c2)nc2c1c(=O)[nH]c(=O)n2CC(O)CO` (stereo not shown) [Compound 116, 8-(4-(benzyloxy)-3-(trifluoromethoxy)phenyl)-3-(2,3-dihydroxypropyl)-7-methyl-3,7-dihydro-1H-purine-2,6-dione]: the EC50 in the assay with CD4+ T-cells and in the assay on CD8+ T-cells was 500 to 1000 nM each time.

As for `Cn1c(-c2ccc(OCc3ccccc3)c(OC(F)(F)F)c2)nc2c1c(=O)[nH]c(=O)n2CC(O)CF` (stereo not shown) [Compound 117, 8-(4-(benzyloxy)-3-(trifluoromethoxy)phenyl)-3-(3-fluoro-2-hydroxypropyl)-7-methyl-3,7-dihydro-1H-purine-2,6-dione], the EC50 in the assay with CD4+ T-cells and in the assay on CD8+ T-cells was below 100 nM each time.

On to `CC(CO)Cn1c(=O)[nH]c(=O)c2c1nc(-c1ccc(OCc3ccccc3)c(OC(F)(F)F)c1)n2C` (stereo not shown) [Compound 118, 8-(4-(benzyloxy)-3-(trifluoromethoxy)phenyl)-3-(3-hydroxy-2-methylpropyl)-7-methyl-3,7-dihydro-1H-purine-2,6-dione], for which the EC50 is below 100 nM in the assay with CD4+ T-cells and 100 to 500 nM in the assay on CD8+ T-cells.

Turning to `Cn1c(-c2ccc(OCc3ccccc3)c(OC(F)(F)F)c2)nc2c1c(=O)[nH]c(=O)n2CC(O)C(F)(F)F` (stereo not shown) [Compound 119, 8-(4-(benzyloxy)-3-(trifluoromethoxy)phenyl)-7-methyl-3-(3,3,3-trifluoro-2-hydroxypropyl)-3,7-dihydro-1H-purine-2,6-dione], the EC50 with CD4+ T-cells and in the assay with CD8+ T-cells was below 100 nM in each case.

As for `CC(O)Cn1c(=O)[nH]c(=O)c2c1nc(-c1ccc(OCc3ccccc3)c(OC(F)(F)F)c1)n2C` (stereo not shown) [Compound 120, 8-(4-(benzyloxy)-3-(trifluoromethoxy)phenyl)-3-(2-hydroxypropyl)-7-methyl-3,7-dihydro-1H-purine-2,6-dione], the EC50 in the assay with CD4+ T-cells and in the assay on CD8+ T-cells was 100 to 500 nM in each case.

As for `COc1cc(-c2nc3c(c(=O)[nH]c(=O)n3CC(O)C(F)(F)F)n2C)ccc1OCc1ccc(C)cc1` (stereo not shown) [Compound 121, 8-(3-methoxy-4-((4-methylbenzyl)oxy)phenyl)-7-methyl-3-(3,3,3-trifluoro-2-hydroxypropyl)-3,7-dihydro-1H-purine-2,6-dione], the EC50 in the assay with CD4+ T-cells and with CD8+ T-cells was below 100 nM each time.

Turning to `Cc1ccc(COc2ccc(-c3nc4c(c(=O)[nH]c(=O)n4CC(C)O)n3C)cc2OC(F)(F)F)cc1` (stereo not shown) [Compound 122, 3-(2-hydroxypropyl)-7-methyl-8-(4-((4-methylbenzyl)oxy)-3-(trifluoromethoxy)phenyl)-3,7-dihydro-1H-purine-2,6-dione], the EC50 in the assay with CD4+ T-cells and in the assay with CD8+ T-cells was below 100 nM throughout.

Take `Cc1ccc(COc2ccc(-c3nc4c(c(=O)[nH]c(=O)n4CC(C)O)n3C)cc2C(F)(F)F)cc1` (stereo not shown) [Compound 123, 3-(2-hydroxypropyl)-7-methyl-8-(4-((4-methylbenzyl)oxy)-3-(trifluoromethyl)phenyl)-3,7-dihydro-1H-purine-2,6-dione]: the EC50 in the assay with CD4+ T-cells and in the assay on CD8+ T-cells was below 100 nM each time.

`Cc1cc(-c2nc3c(c(=O)[nH]c(=O)n3CC(C)O)n2C)ccc1OCc1ccccc1` (stereo not shown) [Compound 124, 8-(4-(benzyloxy)-3-methylphenyl)-3-(2-hydroxypropyl)-7-methyl-3,7-dihydro-1H-purine-2,6-dione]: the EC50 with CD4+ T-cells and with CD8+ T-cells was 100 to 500 nM in each case.

Take `COc1cc(-c2nc3c(c(=O)[nH]c(=O)n3CC(C)O)n2C)ccc1OCc1ccc(C)cc1` (stereo not shown) [Compound 125, 3-(2-hydroxypropyl)-8-(3-methoxy-4-((4-methylbenzyl)oxy)phenyl)-7-methyl-3,7-dihydro-1H-purine-2,6-dione]: the EC50 in the assay with CD4+ T-cells and in the assay with CD8+ T-cells was 100 to 500 nM throughout.

As for `COc1ccc(COc2ccc(-c3nc4c(c(=O)[nH]c(=O)n4CC(C)O)n3C)cc2OC)cc1F` (stereo not shown) [Compound 126, 8-(4-((3-fluoro-4-methoxybenzyl)oxy)-3-methoxyphenyl)-3-(2-hydroxypropyl)-7-methyl-3,7-dihydro-1H-purine-2,6-dione], the EC50 in the assay with CD4+ T-cells is 500 to 1000 nM; in the assay on CD8+ T-cells, 100 to 500 nM.

On to `COc1cc(COc2ccc(-c3nc4c(c(=O)[nH]c(=O)n4CC(C)O)n3C)cc2OC)ccc1F` (stereo not shown) [Compound 127, 8-(4-((4-fluoro-3-methoxybenzyl)oxy)-3-methoxyphenyl)-3-(2-hydroxypropyl)-7-methyl-3,7-dihydro-1H-purine-2,6-dione], for which the EC50 with CD4+ T-cells and in the assay on CD8+ T-cells was 500 to 1000 nM each time.

On to `COc1ccc(COc2ccc(-c3nc4c(c(=O)[nH]c(=O)n4CC(C)O)n3C)cc2OC)cc1` (stereo not shown) [Compound 128, 3-(2-hydroxypropyl)-8-(3-methoxy-4-((4-methoxybenzyl)oxy)phenyl)-7-methyl-3,7-dihydro-1H-purine-2,6-dione], for which the EC50 with CD4+ T-cells and with CD8+ T-cells was 1000 to 5000 nM each time.

With `CC(O)Cn1c(=O)[nH]c(=O)c2c1nc(-c1ccc(Oc3ccc(C(F)(F)F)cc3)cc1)n2C` (stereo not shown) [Compound 136, 3-(2-hydroxypropyl)-7-methyl-8-(4-(4-(trifluoromethyl)phenoxy)phenyl)-3,7-dihydro-1H-purine-2,6-dione], the EC50 in the assay with CD4+ T-cells and with CD8+ T-cells was 1000 to 5000 nM throughout.

The values are drawn from patent publication EP4389749A1, “SUBSTITUTED 3,7-DIHYDRO-1H-PURINE-2,6-DIONES AND USE THEREOF” (invIOs GmbH, priority 2022, dated 2024).
